The values that follow come from US20190046490A1, “METHODS OF TREATING LACTOSE INTOLERANCE” (Nogra Pharma Limited, priority 2016, published 2019).

The subject of one series is LCT mRNA. Nature of the series: Quantitative PCR of LCT mRNA expression in Caco-2 cells. The following applies: for LCT mRNA expression relative to control (qPCR): 24 hours, normalized to GAPDH. It is filed as cell-based, human. The method, then:
(§1) Caco-2 (colonic adenocarcinoma) cells were grown in Dulbecco's Modified Eagle's Medium (DMEM, Invitrogen, Life Technologies, Cergy-Pontoise, France) supplemented with 20% foetal calf serum (FCS, Dutscher, Brumath, France), 1% penicillin-streptomycin (5 ml/l) (Invitrogen, Life technologies) and 1% non-essential amino acids (5 ml/l) (Invitrogen, Life technologies). All cell lines were cultured as confluent monolayers at 37° C. in a controlled, 5% CO2 atmosphere.
(§2) For cell stimulations, 1×10^6 cells per well were seeded in 6-well plates. Cells were serum deprived for 16 hours prior to stimulation in order to synchronize the cells. Cells were treated with GED (Nogra Pharma Ltd, Ireland), pioglitazone (1 μM, Sigma-Aldrich) or CLA (various concentrations, Sigma-Aldrich). When necessary, the DMSO vehicle (Sigma-Aldrich) was used as control. After 24 hours of stimulation, cells were washed three times with sterile PBS before RNA extraction. Cell stimulations were performed in 4 replicates for microarray analysis and in 3, 4 or 6 replicates for other stimulations.
(§3) Cells were lysed with lysis buffer (RA1, Macherey-Nagel) containing 1% β-mercaptoethanol. Total RNA was extracted with a Nucleospin RNA kit (Macherey-Nagel, Hoerdt, France). After RNAse inactivation, total RNA was cleaned of genomic DNA traces by DNAse treatment and eluted in RNAse-free, DEPC-water. The purity of the RNA was evaluated by UV spectroscopy on a Nanodrop system (Nyxor Biotech, Paris, France) from 220 to 350 nm. Before microarray experiments, RNAs were also profiled on an Agilent 2100 bioanalyzer. One μg of total RNA with a minimum concentration of 50 ng/μl was used in the microarray and qRT-PCR analysis.
(§4) Expression of genes of interest was quantified by quantitative PCR (qPCR) of corresponding reverse transcribed mRNA. One μg of total RNA was reverse-transcribed into cDNA using the High Capacity cDNA Archive kit (Applied Biosystems). Amplification was performed using an ABI PRISM 7000 sequence detection system (Applied Biosystem) using Power SYBR® Green PCR master Mix (Applied Biosystem). Primer pairs for each human transcript were chosen with qPrimer depot software (at primerdepot.nci.nih.gov.). Quantification of qPCR signals was performed using ΔCt relative quantification method using GAPDH as a reference gene for human and rat samples and β-Actin for mouse samples. Values were represented in terms of relative quantity of mRNA level variation or fold increase compared to control conditions.
For orientation: Real-time PCR tracks product formation cycle by cycle.

A further series deals with LCT activity. Nature of the series: Lactase activity in Caco-2 cells (glucose oxidase method). The class given is cell-based, human. Here is the method:
(§5) Lactase activity was evaluated by using a glucose oxidase method (Glucose Assay Kit, Sigma). This lactase assay is based on the measurement of the amount of glucose produced following the action of lactase by incubating samples with a lactose buffer solution (0.056 mol/l lactose in a 0.1 mol/l Na-maleate buffer). For Caco-2 cells, lactase activity was determined directly from the cell monolayer. After extensive washing, the cell monolayer was incubated with lactose buffer for one hour at 37° C. The supernatant was recovered, 50 μl were diluted with 100 μl of glucose oxidase reagent and incubated at 37° C. for 1 hour. The reaction was stopped with 100 μl of H2SO4 and read by spectrophotometry at 450 nm. When lactase activity was determined from intestinal sample, tissue samples were first dounce-homogenized in 0.9% NaCl on crushed ice. These homogenates were then diluted in 0.9% NaCl ( 1/500) and 50 μl of dilution were incubated with lactose buffer and used to determine lactase activity. For each experiment, the background attributed to the remaining glucose in the samples was measured by incubating cells or cell extracts in lactose-free buffer.

The subject of series [1] is LCT in PPARγ knock-down Caco-2 cells. Description: LCT expression and activity in PPARγ knock-down Caco-2 cells (ShPPAR). It is filed as cell-based, human. Particulars: ShPPAR vs ShLuc Caco-2 cells, 250-1000 μM. The method, then:
as §4
Lactase activity was evaluated by using a glucose oxidase method (Glucose Assay Kit, Sigma). […] For Caco-2 cells, lactase activity was determined directly from the cell monolayer. […] The reaction was stopped with 100 μl of H2SO4 and read by spectrophotometry at 450 nm. When lactase activity was determined from intestinal sample, tissue samples were first dounce-homogenized in 0.9% NaCl on crushed ice. […] For each experiment, the background attributed to the remaining glucose in the samples was measured by incubating cells or cell extracts in lactose-free buffer. […]

The subject of another series is LCT. Description: LCT mRNA and LCT activity in duodenum and jejunum of rats after 5 days oral gavage. The following applies: oral gavage 5 days, GED 30 mg/kg/day, CLA 200 mg/kg/day. It is filed as in vivo, Sprague Dawley rats. The method, then: as §4, §5
(§6) To determine whether CLA induces LCT expression and activity in vivo, Sprague Dawley rats were fed a control diet and administered either carboxymethyl cellulose (CMC; 0.5%), CLA, or GED for 5 days, after which levels of PPARγ mRNA, LCT mRNA, and LCT activity were measured. CLA was administered at 200 mg/kg/day by oral gavage, and GED was administered at 30 mg/kg/day by oral gavage (FIG. 21A).

A further series has as its system PPARγ mRNA. Nature of the series: PPARγ mRNA in duodenum and jejunum of rats after 5 days oral gavage. Particulars: 200 mg/kg/day oral gavage 5 days. It is filed as in vivo, Sprague Dawley rats. Here is the method:
as §4, §6

For a further series, the system named is LCT gene. Description: Transcriptome microarray analysis of LCT mRNA expression in Caco-2 cells treated with PPARγ modulators. It is filed as cell-based, human. The following applies: vs unstimulated cells. The method, then:
as §1, §2, §3
Dual-colour gene expression microarrays were used to compare the cRNA from the samples. 44,000 genes were screened. The RNAs from the samples were first reverse-transcribed into cDNA (Affinity-Script RT, Agilent), which were then used as the substrate for the synthesis and amplification of cRNA by T7 RNA polymerase in the presence of cyanine 3-CTP for the CTL sample (green fluorescence) and cyanine 5-CTP for the PPAR-γ y modulator sample (red fluorescence). The two-labelled cRNAs were mixed, hybridized on the same array (G4851A Agilent 8×44K) and then scanned (with an Agilent G2505B scanner). Fluorescence was visualized after laser excitation and the relative intensities of the two fluorophores were expressed as a ratio, in order to yield the over- or under-expression status of each gene (using GeneSpring software (Agilent)). This analysis was performed for each PPAR-γ modulator.

Another series deals with Caco-2 cells. Nature of the series: Glucose uptake assay (2-DG6P) in Caco-2 cells. The following applies: 1 μM, 24 h. It is filed as cell-based, human. Here is the method:
Glucose uptake was evaluated by using the glucose uptake colorimetric assay kit (Sigma-Aldrich) according to the manufacturer's instructions. Briefly, Caco-2 cells were seeded into a 96-well plate at a density of 30,000 cells per well. Cells were serum deprived for 16 hours prior to stimulation in order to synchronize the cells. Cells were treated with GED (1 mM) or pioglitazone (1 μM) for 24 h. Cells were then washed 3 times with PBS and were glucose-starved by incubating with 100 μl of KRPH buffer (Krebs-Ringer-Phosphate-HEPES (KRPH) Buffer—20 mM HEPES, 5 mM KH2PO4, 1 mM MgSO4, 1 mM CaCl2, 136 mM NaCl, and 4.7 mM KCl, pH 7.4) containing 2% BSA for 40 minutes. 10 μl of 2-deoxyglucose (2-DG; 10 mM) was then added and incubation was continued for 20 minutes. 2-DG is taken up by the cells and phosphorylated by hexokinase to 2-DG6P, which cannot be further metabolized and accumulates in cells. Following incubation, cells were washed 3 times with PBS and lysed with 80 μl of the extraction buffer provided. The amount of 2-DG6P (which is directly proportional to glucose uptake by the cells) was determined by a colorimetric detection assay according to the manufacturer's protocol.

Entries after “also recorded” stand apart in the source; their conditions may differ.

On to `O=C(Nc1ccccc1)c1cc([N+](=O)[O-])ccc1Cl` [GW9662], for which the “ability of GED to induce increased LCT mRNA expression in the presence of the antagonist” value in the series with LCT mRNA (GED plus GW9662) is on record as “markedly reduced”.

Regarding `CCCCC/C=C\C=C\CCCCCCCCC(=O)O` [CLA, trans-10, cis-12 conjugated linoleic acid (CLA) isomer], in the series with LCT mRNA (1 mM), the “LCT mRNA expression relative to control (qPCR)” value was “as efficiently as 1 mM GED”. The “increase in LCT activity over control levels, compared to 1 mM GED” value in the series with LCT activity (Caco-2 cells, 1 mM) worked out at 2 fold. In addition, the “LCT activity in Caco-2 cells” value in the series on LCT activity (concentrations of 100 mM or more) is on record as “significantly increased”. In addition, in series [1], the “CLA-dependent induction of LCT activity in PPARγ knock-down cells” value was “strongly compromised” and the “CLA-dependent induction of LCT expression in PPARγ knock-down cells” value is recorded as “strongly compromised”. Besides, in the series with LCT, the “LCT activity in duodenal tissue compared to CMC control” value was “significant increase”, the “LCT mRNA expression in duodenal tissue relative to CMC control” value is listed as “significant increase” and the “LCT mRNA expression in jejunal tissue relative to CMC control” value is given as “not”. In addition, in the series on PPARγ mRNA, the “PPARγ mRNA expression levels in duodenum relative to CMC control” value is reported as “significant increase” and the “PPARγ mRNA expression levels in jejunum relative to CMC control” value is “significant increase”.

`CCc1ccc(CCOc2ccc(CC3SC(=O)NC3=O)cc2)nc1` (stereo not drawn) [Pioglitazone, pioglitazone]: the “Fold Lactase RNA” value in the series with LCT gene (1 μM) came to 17.9 fold; in the series on LCT gene (1 μM, listed as Pio), 17.93 fold. In addition, in the series with LCT activity (Caco-2 cells, 1 μM, vs DMSO), the “LCT activity compared to untreated cells” value is recorded as over 2 fold. The “glucose uptake of Caco-2 cells” value in the series with Caco-2 cells is recorded as “did not significantly alter”.

As for `Nc1ccc(O)c(C(=O)O)c1` [5ASA, 5-aminosalicylic acid], the “Fold Lactase RNA” value in the series on LCT gene (30 mM) was found to be 8.7 fold. The “LCT mRNA expression relative to control (qPCR)” value in the series on LCT mRNA (30 mM) is given as “Significant increases; also recorded: induction”. The “LCT activity relative to control cells” value in the series with LCT activity (Caco-2 cells, 30 mM) is listed as “not”.
